Measurements from publication PMC9319741, “A Novel ERK2 Degrader Z734 Induces Apoptosis of MCF–7 Cells via the HERC3/p53 Signaling Pathway” (Molecules, 2022).

Legend:
ERK2 = target: T1, ERK2 (Homo sapiens, UniProt P28482); assay: IMAP TR-FRET enzymatic kinase (cascade) assay; assay type: biochemical
T1 construct: gene MAPK1

ERK1 = target: T2, ERK1 (Homo sapiens, UniProt P27361); assay: IMAP TR-FRET enzymatic kinase (cascade) assay; assay type: biochemical
T2 construct: gene MAPK3
T2 sequence (P27361 2-379): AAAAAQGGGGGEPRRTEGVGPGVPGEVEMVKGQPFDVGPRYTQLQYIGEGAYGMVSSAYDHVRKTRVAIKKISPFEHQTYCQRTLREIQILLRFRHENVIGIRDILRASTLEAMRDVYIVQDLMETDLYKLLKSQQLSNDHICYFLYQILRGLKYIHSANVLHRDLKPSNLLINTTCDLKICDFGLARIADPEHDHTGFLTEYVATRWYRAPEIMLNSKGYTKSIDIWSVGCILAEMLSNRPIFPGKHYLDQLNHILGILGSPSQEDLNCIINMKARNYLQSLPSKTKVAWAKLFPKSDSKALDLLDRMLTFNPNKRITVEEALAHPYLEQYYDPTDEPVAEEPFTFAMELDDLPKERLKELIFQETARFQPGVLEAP

T1 sequence (P28482 2-360): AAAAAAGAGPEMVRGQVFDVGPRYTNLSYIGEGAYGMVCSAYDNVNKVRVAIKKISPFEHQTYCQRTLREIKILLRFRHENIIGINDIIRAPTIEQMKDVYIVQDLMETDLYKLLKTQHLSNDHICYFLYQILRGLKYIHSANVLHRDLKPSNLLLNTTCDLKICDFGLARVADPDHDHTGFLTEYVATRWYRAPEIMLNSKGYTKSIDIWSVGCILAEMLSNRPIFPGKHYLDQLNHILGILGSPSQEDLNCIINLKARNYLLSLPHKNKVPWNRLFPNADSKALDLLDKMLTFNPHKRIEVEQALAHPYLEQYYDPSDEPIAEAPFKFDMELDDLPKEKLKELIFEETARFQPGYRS

Q: For `CC(=O)NC(CC(=O)N(c1ccccc1)c1nc2ccccc2s1)c1ccccc1` (centres unmarked) [Z734], which IC50 (ERK2) is on record?
A: The IC50 was 3 nM.

Q: And the IC50 (ERK1)?
A: The IC50 was 9 nM.
